Results from US12466813B2, “PRC1 inhibitors and methods of treatment therewith” (The Regents of the University of Michigan, priority 2018, dated 2025).
Entries after “also recorded” stand apart in the source; their conditions may differ.

Legend:
[1] = biological target: T1, RING1B-PCGF1 (Homo sapiens, UniProt Q99496); experiment: RING1B-PCGF1 E3 ligase activity in vitro; assay type: biochemical; conditions: FIG. 2B
T1 sequence (Q99496 1-336): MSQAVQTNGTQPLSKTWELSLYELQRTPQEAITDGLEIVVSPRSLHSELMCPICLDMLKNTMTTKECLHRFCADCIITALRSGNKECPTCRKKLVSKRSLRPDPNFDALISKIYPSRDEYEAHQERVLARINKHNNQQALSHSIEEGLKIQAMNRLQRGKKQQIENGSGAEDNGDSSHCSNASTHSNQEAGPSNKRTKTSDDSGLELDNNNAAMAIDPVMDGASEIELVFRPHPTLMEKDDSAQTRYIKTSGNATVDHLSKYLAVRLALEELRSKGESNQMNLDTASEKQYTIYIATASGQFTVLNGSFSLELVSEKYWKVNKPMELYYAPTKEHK
T1 sequence (Q9BSM1 1-259 partner): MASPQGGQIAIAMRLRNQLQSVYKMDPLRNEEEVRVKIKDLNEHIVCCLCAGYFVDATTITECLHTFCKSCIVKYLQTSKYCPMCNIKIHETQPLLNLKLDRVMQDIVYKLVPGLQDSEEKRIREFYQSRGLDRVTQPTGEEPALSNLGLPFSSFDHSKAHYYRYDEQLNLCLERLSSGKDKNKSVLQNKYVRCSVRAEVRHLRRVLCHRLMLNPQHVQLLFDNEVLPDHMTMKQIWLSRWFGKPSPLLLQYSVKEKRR
Description: (§1) FIG. 2. COMPOUND 1 inhibits PRC1 in vitro. […] C.

[2] = tested on: H2Aub in TEX cells; experiment: H2Aub, RNA-seq and ChIP-seq in TEX cells; assay type: cell-based; conditions: FIG. 4
Method: (§2) FIGS. 4A-F. COMPOUND 1 inhibits PRC1 in TEX cells. FIG. 4A. Inhibition of H2Aub in TEX cells. FIG. 4B. Differentiation of TEX cells upon treatment with COMPOUND 1. […] FIG. 4C. GSEA analysis of TEX cells showing revers of stem cell signature. FIG. 4D. […] FIG. 4E. Gene expression changes upon treatment with COMPOUND 1. FIG. 4F.
(§3) Experiments were conducted during development of embodiments herein to develop small molecule inhibitors of PRC1 by targeting the Ring1B-BMI1 E3 ligase. These compounds bind directly to Ring1B-Bmi1 with low-micromolar affinity and inhibit PRC1 in vitro and in cells. […] Experiments were conducted during development of embodiments herein to test COMPOUND 1 in leukemia stem cell models represented by TEX cells (Ref. 22; herein incorporated by reference in its entirety) and M9-ENL1 cells (Ref. 23; herein incorporated by reference in its entirety). […] In some embodiments, COMPOUND 1 and COMPOUND 1 analogs are find use as agents in targeting leukemia and other cancer stem cells.

[3] = biological target: T2, RING1B-BMI1 (Homo sapiens, UniProt Q99496); experiment: ITC binding of COMPOUND 1 to RING1B-BMI1
T2 sequence (Q99496 1-336): T1 sequence (Q99496 1-336)
T2 sequence (P35226 1-326 partner): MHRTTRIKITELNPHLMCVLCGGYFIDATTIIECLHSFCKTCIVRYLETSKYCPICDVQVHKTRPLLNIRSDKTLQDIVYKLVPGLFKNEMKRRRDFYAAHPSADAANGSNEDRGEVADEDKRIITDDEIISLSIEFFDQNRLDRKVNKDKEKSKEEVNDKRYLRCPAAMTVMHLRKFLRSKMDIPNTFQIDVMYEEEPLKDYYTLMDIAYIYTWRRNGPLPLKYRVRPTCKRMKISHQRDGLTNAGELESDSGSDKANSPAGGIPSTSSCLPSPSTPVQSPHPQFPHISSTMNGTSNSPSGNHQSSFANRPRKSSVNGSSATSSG
Method: FIG. 1. […] A. structure of COMPOUND 1. B. ITC experiments showing the binding of COMPOUND 1 to RING1B-BMI1. C. Assigned NMR spectrum of RING1B-BMI1 with DMSO and COMPOUND 1 in 1-2 molar ratio.
as §3

[4] = biological target: T3, RING1B-BMI1 interaction with nucleosome (Homo sapiens, UniProt Q99496); experiment: EMSA assay, RING1B-BMI1 interaction with nucleosome; assay type: binding; conditions: FIG. 2D
T3 sequence (Q99496 1-336): T1 sequence (Q99496 1-336)
T3 sequence (P35226 1-326 partner): T2 sequence (P35226 1-326 partner)
Description: as §1

[5] = tested on: M9-ENL1 cells; experiment: Transplantation of treated M9-ENL1 cells into mice; assay type: in vivo; conditions: then transplanted into mice, FIG. 5
Method: as §3

[6] = biological target: T2, RING1B-BMI1; experiment: RING1B-BMI1 E3 ligase (H2Aub) activity in vitro; assay type: biochemical
Method: as §1, §3

[7] = biological target: T2, RING1B-BMI1; experiment: KD classes of Table A (direct binding to Ring1B-Bmi1); conditions: class given in Table A
[8] = tested on: TEX cells; experiment: Differentiation and CD34 marker of TEX cells; assay type: cell-based; conditions: FIG. 4
Method: as §2, §3

[9] = tested on: primary AML samples; experiment: Primary AML samples: H2Aub, colony formation, CD34; assay type: cell-based; conditions: FIG. 6
[10] = biological target: BRCA1-BARD1 (Homo sapiens, UniProt P38398+Q99728); experiment: BRCA1-BARD1 E3 ligase selectivity; assay type: biochemical; conditions: FIG. 2
BRCA1-BARD1, sequence (P38398 whole entry): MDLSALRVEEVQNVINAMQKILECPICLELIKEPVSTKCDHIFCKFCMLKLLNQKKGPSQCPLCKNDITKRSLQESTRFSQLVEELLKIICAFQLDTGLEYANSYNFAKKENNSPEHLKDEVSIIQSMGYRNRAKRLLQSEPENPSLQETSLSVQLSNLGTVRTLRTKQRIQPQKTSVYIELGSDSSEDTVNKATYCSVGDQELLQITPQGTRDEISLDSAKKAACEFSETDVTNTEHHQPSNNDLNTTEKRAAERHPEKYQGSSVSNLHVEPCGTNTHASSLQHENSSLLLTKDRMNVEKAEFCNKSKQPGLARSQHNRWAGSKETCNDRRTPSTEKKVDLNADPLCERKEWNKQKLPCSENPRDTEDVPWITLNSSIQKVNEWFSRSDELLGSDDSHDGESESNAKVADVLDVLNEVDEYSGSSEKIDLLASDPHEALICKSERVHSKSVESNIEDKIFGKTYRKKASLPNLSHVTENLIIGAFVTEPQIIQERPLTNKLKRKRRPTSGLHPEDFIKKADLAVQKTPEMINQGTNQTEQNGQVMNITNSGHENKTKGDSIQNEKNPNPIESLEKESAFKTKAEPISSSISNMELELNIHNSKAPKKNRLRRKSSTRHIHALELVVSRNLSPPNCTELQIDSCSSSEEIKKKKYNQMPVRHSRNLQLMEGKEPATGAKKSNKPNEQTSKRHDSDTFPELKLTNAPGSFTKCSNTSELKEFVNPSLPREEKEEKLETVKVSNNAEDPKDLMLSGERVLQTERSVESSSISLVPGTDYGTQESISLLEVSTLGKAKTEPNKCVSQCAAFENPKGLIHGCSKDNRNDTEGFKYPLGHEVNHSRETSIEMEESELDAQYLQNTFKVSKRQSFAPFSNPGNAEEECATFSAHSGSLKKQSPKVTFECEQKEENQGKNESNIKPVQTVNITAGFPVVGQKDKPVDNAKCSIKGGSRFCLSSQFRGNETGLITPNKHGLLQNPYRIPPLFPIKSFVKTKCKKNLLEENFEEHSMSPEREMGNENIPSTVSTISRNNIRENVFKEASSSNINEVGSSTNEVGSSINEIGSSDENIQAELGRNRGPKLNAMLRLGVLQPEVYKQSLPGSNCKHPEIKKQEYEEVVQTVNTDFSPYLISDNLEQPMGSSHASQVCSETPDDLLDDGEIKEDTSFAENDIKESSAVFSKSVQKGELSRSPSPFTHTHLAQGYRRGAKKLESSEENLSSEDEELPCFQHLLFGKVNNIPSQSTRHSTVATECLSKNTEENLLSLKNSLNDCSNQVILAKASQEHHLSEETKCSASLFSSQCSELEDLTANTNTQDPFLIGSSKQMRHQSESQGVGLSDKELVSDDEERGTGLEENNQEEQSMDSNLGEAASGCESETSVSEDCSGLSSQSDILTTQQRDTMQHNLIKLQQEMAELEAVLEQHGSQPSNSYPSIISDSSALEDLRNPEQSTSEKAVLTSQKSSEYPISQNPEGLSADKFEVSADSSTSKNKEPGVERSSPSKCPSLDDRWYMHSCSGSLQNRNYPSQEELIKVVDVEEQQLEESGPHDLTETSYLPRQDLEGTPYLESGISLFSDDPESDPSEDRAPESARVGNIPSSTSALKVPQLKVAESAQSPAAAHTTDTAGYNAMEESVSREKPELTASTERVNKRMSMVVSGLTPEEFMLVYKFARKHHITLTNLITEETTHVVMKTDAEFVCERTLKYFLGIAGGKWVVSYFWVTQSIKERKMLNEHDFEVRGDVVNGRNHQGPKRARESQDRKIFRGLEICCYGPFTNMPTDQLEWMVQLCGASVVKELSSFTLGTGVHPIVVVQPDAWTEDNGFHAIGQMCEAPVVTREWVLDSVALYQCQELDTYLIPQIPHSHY
BRCA1-BARD1, sequence (Q99728 whole entry): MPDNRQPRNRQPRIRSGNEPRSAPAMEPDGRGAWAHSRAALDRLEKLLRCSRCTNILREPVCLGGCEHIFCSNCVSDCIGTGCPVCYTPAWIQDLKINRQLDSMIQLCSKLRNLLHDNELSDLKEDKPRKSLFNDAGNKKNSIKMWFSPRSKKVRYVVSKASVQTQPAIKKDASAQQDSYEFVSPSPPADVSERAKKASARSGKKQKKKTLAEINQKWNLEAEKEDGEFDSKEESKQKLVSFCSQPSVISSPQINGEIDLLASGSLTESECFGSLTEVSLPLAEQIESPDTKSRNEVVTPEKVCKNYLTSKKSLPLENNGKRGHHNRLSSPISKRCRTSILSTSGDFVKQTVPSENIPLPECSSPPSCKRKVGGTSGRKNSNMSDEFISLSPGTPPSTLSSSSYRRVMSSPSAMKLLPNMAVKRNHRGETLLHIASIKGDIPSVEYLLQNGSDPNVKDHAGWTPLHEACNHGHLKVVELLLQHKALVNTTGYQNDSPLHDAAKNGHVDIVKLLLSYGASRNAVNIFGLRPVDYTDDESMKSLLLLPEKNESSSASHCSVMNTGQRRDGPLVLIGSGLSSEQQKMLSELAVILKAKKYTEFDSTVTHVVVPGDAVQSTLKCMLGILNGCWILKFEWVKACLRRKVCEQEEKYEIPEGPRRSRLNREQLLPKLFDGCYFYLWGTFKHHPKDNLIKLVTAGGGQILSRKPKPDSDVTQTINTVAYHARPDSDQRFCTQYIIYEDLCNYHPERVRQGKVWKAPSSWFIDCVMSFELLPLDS
Method: as §1, §3

[11] = biological target: T4, TRIM37 (Homo sapiens, UniProt O94972); experiment: TRIM37 E3 ligase selectivity; assay type: biochemical; conditions: FIG. 2
T4 sequence (O94972 1-964): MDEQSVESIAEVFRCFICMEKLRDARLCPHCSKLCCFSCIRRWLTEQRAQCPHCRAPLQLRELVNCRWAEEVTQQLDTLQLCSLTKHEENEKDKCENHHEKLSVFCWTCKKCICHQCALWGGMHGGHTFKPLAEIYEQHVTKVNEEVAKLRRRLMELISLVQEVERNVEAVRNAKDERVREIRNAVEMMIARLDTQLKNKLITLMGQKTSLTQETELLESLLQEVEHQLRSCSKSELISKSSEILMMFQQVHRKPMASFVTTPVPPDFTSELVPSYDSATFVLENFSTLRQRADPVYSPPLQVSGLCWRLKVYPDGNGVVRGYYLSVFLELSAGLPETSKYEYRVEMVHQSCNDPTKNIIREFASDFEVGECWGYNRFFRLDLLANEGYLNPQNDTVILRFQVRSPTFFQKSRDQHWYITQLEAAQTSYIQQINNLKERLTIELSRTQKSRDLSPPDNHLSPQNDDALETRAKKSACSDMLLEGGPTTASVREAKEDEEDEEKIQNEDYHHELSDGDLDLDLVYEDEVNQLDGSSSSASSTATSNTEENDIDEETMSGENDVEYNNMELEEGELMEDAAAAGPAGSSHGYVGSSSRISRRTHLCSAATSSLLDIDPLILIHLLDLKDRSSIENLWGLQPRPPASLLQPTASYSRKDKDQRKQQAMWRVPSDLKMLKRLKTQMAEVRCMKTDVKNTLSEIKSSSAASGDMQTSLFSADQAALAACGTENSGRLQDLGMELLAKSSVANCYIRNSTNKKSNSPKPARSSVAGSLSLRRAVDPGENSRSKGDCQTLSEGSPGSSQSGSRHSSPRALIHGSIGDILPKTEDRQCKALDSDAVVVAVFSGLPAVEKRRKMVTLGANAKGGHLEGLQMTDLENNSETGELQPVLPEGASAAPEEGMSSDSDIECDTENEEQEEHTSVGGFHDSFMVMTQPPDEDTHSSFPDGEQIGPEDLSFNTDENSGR
Method: as §1, §3

[12] = tested on: M9-ENL1 cells; experiment: Colony formation of M9-ENL1 cells; assay type: cell-based; conditions: FIG. 5
Method: as §3

[13] = tested on: PRC1 complex in leukemia K562 cells; experiment: H2Aub level / PRC1 activity in K562 cells; assay type: cell-based; conditions: FIG. 3
Method: FIG. 3. COMPOUND 1 inhibits PRC1 in K562 cells. Knockdown of BMI1 and RING1B in K562 cells results in decrease in H2Aub.
as §3

CC(C)c1c(-c2cccc3[nH]ccc23)[nH]c(C(=O)O)c1-c1c(Cl)ccc2[nH]ccc12 [COMPOUND 1, 3-(5-Chloro-1H-indol-4-yl)-5-(1H-indol-4-yl)-4-isopropyl-1H-pyrrole-2-carboxylic acid]
RING1B-PCGF1 activity [1]: inhibits RING1B-PCGF1 activity
H2Aub in TEX cells [2]: inhibits H2Aub
global H2Aub (ChIP-seq) [2]: global decrease in H2Aub
leukemia stem cell signature (RNA-seq) [2]: reversing leukemia stem cell signature
binding to RING1B-BMI1 ([3]; ITC and NMR, FIG. 1): binds to RING1B-BMI1
Kd ([3]; binds directly to Ring1B-Bmi1, FIG. 1): 2.6 µM
RING1B-BMI1 interaction with nucleosome [4]: inhibits RINIG1B-BMI1 interaction with nucleosome
engraftment and leukemia development [5]: strongly decreases engraftment and leukemia development
IC50 ([6]; FIG. 2): ~2 µM
RING1B-BMI1 H2Aub activity ([6]; in vitro, FIG. 2A): inhibits RING1B-BMI1 H2Aub activity
Kd [7]: < 20 µM
differentiation of TEX cells [8]: induces differentiation
stem cell marker CD34 [8]: loss of stem cell marker CD34
H2Aub in primary AML samples [9]: decreases H2Aub
colony formation, primary AML samples [9]: inhibits colony formation
stem cell marker CD34, primary AML samples [9]: decrease stem sell marker CD34
inhibition of BRCA1-BARD1 E3 ligase [10]: does not inhibit
inhibition of TRIM37 E3 ligase [11]: does not inhibit
colony formation of M9-ENL1 cells [12]: effective in blocking colony formation
PRC1 activity / H2Aub level in K562 cells [13]: blocks the activity of PRC1 complex; also recorded: decreases H2Aub level
